From ChEMBL document CHEMBL1143757, “Synthesis and inhibitory activity of new benzimidazole derivatives against Burkitt's lymphoma promotion” (2007)

Columns and labels:
Human gammaherpesvirus 4 [1] = assay: Inhibition of TPA-induced Epstein-Barr virus early antigen activation in Raji cells at 32 nmol relative to control; values are per cent of control
Human gammaherpesvirus 4 [2] = assay: Inhibition of TPA-induced Epstein-Barr virus early antigen activation in Raji cells at 3.2 nmol relative to control; values are per cent of control
Human gammaherpesvirus 4 [3] = assay: Inhibition of TPA-induced Epstein-Barr virus early antigen activation in Raji cells at 16 nmol relative to control; values are per cent of control
Raji = assay: Cytotoxicity against Raji cells assessed as cell viability at 32 nmol relative to control; assay type: functional, Homo sapiens
Human gammaherpesvirus 4 [4] = assay: Inhibition of TPA-induced Epstein-Barr virus early antigen activation in Raji cells at 0.32 nmol relative to control; values are per cent of control

Structure (SMILES) | level, % of control (Human gammaherpesvirus 4 [1]) [%] | level, % of control (Human gammaherpesvirus 4 [2]) [%] | level, % of control (Human gammaherpesvirus 4 [3]) [%] | Activity (Raji) [%] | level, % of control (Human gammaherpesvirus 4 [4]) [%]
Cc1nc2cc(/N=C\c3ccc4c(c3)OCO4)ccc2[nH]1 | 15.1 | 85.4 | 60.2 | 60 | 100
Cc1nc2cc(N3C(=O)CSC3c3cccc4ccccc34)ccc2[nH]1 (stereo not given) | 17.1 | 85.1 | 61 | 60 | 100
CCNC(=S)Nc1ccc2c(c1)nc(C)n2Cc1ccccc1 | 14 | 81.2 | 59.6 | 60 | 100
Cc1nc2cc(/N=C\c3ccc(C)o3)ccc2[nH]1 | 18 | 86.2 | 62 | 60 | 100
Cc1nc2cc(/N=C3/SCC(=O)N3C(=O)c3ccccc3)ccc2n1Cc1ccccc1 | 12.3 | 82.5 | 52.5 | 60 | 100
Cc1nc2cc(/N=C\c3c[nH]c4ccccc34)ccc2[nH]1 | 18.4 | 86.1 | 62.1 | 60 | 100
Cc1nc2cc(N3C(=O)CSC3c3ccc4c(c3)OCO4)ccc2[nH]1 (stereo not given) | 21.6 | 88.4 | 65 | 60 | 100
Cc1nc2cc(N3C(=O)CSC3c3cccs3)ccc2[nH]1 (stereo not given) | 22.1 | 88.9 | 66.5 | 60 | 100
Cc1nc2cc(N3C(=O)CSC3c3ccc(C)o3)ccc2[nH]1 (stereo not given) | 20.9 | 87.7 | 65.1 | 60 | 100
CNC(=S)Nc1ccc2c(c1)nc(C)n2Cc1ccccc1 | 13.2 | 80 | 58.1 | 60 | 100
Cc1nc2cc(N)ccc2n1Cc1ccccc1.Cl | 18.5 | 86.3 | 62.2 | 60 | 100
Cc1nc2cc([N+](=O)[O-])ccc2n1Cc1ccccc1 | 18.3 | 87.4 | 62.4 | 60 | 100
Cc1nc2cc(/N=C3/SCC(=O)N3C)ccc2n1Cc1ccccc1 | 20.7 | 83.4 | 61.2 | 60 | 100
Cc1nc2cc([N+](=O)[O-])ccc2[nH]1 | 18.4 | 88 | 62.5 | 60 | 100
Cc1nc2cc(N3C(=O)CSC3c3c[nH]c4ccccc34)ccc2[nH]1 (stereo not given) | 21.8 | 87.1 | 65.9 | 60 | 100
CCN1C(=O)CS/C1=N/c1ccc2c(c1)nc(C)n2Cc1ccccc1 | 18.3 | 81.1 | 54.2 | 60 | 100
Cc1nc2cc(N)ccc2[nH]1.Cl | 20.3 | 88.9 | 64.3 | 60 | 100
Cc1ccc(C2SCC(=O)N2c2ccc3[nH]c(C)nc3c2)cc1 (stereo not given) | 23.1 | 88.9 | 66.1 | 60 | 100
Cc1nc2cc(/N=C\c3cccs3)ccc2[nH]1 | 22 | 89.1 | 65.5 | 60 | 100
Cc1nc2cc(/N=C\c3cccc4ccccc34)ccc2[nH]1 | 20.6 | 89.6 | 65.8 | 60 | 100
COc1ccc(NC(=S)Nc2ccc3c(c2)nc(C)n3Cc2ccccc2)cc1 | 13.5 | 78.3 | 53.1 | 60 | 100
Cc1nc2cc(NC(=S)NC(=O)c3ccccc3)ccc2n1Cc1ccccc1 | 17.8 | 82 | 60.6 | 60 | 100
Cc1nc2ccccc2[nH]1 | 19.6 | 88.3 | 63.6 | 60 | 100
COc1ccc(N2C(=O)CS/C2=N/c2ccc3c(c2)nc(C)n3Cc2ccccc2)cc1 | 13.2 | 78 | 53 | 60 | 100
Cc1nc2cc(NC(=S)Nc3ccccc3)ccc2n1Cc1ccccc1 | 15.3 | 83.1 | 60.2 | 60 | 100
Cc1nc2cc(/N=C3/SCC(=O)N3c3ccccc3)ccc2n1Cc1ccccc1 | 19.4 | 82.5 | 61 | 60 | 100
Cc1ccc(/C=N\c2ccc3[nH]c(C)nc3c2)cc1 | 19.3 | 89.1 | 64.5 | 60 | 100
